Assay results published in ChEMBL document CHEMBL1136175, “Synthesis and antimycobacterial activity of capuramycin analogues. Part 2: acylated derivatives of capuramycin-related compounds” (Bioorg Med Chem Lett, 2003).
≈ marks a conversion by molar mass, not a printed value.

Assays:
[1] = tested on: Mycolicibacterium smegmatis; assay: Antimycobacterial activity was determined against Mycobacterium smegmatis SANK75075; type: functional
[2] = target: T1, Phospho-N-acetylmuramoyl-pentapeptide-transferase (Escherichia coli K-12, UniProt P0A6W3); assay: Inhibitory concentration required against Translocase I
T1 sequence (P0A6W3 whole entry): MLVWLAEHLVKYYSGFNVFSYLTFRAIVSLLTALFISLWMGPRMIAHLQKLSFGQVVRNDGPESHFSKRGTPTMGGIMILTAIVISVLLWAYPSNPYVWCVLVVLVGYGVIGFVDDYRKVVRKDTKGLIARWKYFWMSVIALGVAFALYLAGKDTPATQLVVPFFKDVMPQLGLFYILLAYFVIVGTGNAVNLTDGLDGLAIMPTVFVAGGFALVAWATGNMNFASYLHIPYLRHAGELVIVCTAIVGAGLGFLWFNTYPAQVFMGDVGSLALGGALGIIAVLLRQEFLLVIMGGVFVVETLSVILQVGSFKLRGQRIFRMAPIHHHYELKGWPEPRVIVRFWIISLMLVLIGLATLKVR

[3] = tested on: Mycobacterium intracellulare; assay: Antimycobacterial activity against Mycobacterium intracellular ATCC 1954 E-3; type: functional
[4] = tested on: Mycobacterium kansasii; assay: Antimycobacterial activity against Mycobacterium kansasii ATCC 12478; type: functional
[5] = tested on: Mycobacterium avium; assay: Antimycobacterial activity against Mycobacterium avium NIHJ1605; type: functional

Row | SMILES | MIC [1] [µg/mL] | IC50 [2] [µM] | MIC [3] [µg/mL] | MIC [4] [µg/mL] | MIC [5] [µg/mL]
1 | CCCCCCCCC(=O)O[C@@H]1[C@H](OC)[C@@H]([C@@H](O[C@H]2OC(C(=O)N[C@H]3CCC[C@@H](C)NC3=O)=C[C@H](O)[C@@H]2O)C(N)=O)O[C@H]1n1ccc(=O)[nH]c1=O | 25 (≈ 34.5 µM) | 0.235 |  |  | 
2 | CCCCCCCCCCCCCCCCCCCCCC(=O)O[C@@H]1[C@H](OC)[C@@H]([C@@H](O[C@H]2OC(C(=O)N[C@H]3CCCCNC3=O)=C[C@H](O)[C@@H]2O)C(N)=O)O[C@H]1n1ccc(=O)[nH]c1=O | 100 (≈ 112 µM) |  |  |  | 
3 | CCCCCCCCC(=O)O[C@@H]1[C@H](OC)[C@@H]([C@@H](O[C@H]2OC(C(=O)Nc3ccccc3)=C[C@H](O)[C@@H]2O)C(N)=O)O[C@H]1n1ccc(=O)[nH]c1=O | 12.5 (≈ 18.5 µM) | 1.04 | 1 (≈ 1.48 µM) | 1 (≈ 1.48 µM) | 0.25 (≈ 0.371 µM)
4 | CCCCCC(=O)O[C@@H]1[C@H](OC)[C@@H]([C@@H](O[C@H]2OC(C(=O)N[C@H]3CCC[C@@H](C)NC3=O)=C[C@H](O)[C@@H]2O)C(N)=O)O[C@H]1n1ccc(=O)[nH]c1=O | 50 (≈ 73.3 µM) | 0.0631 | 2 (≈ 2.93 µM) | 2 (≈ 2.93 µM) | 16 (≈ 23.5 µM)
5 | CCCCCCCO[C@@H]1[C@H](OC)[C@@H]([C@@H](O[C@H]2OC(C(=O)N[C@H]3CCC[C@@H](C)NC3=O)=C[C@H](O)[C@@H]2O)C(N)=O)O[C@H]1n1ccc(=O)[nH]c1=O | 100 (≈ 147 µM) | 0.0807 | 4 (≈ 5.87 µM) | 32 (≈ 46.9 µM) | 32 (≈ 46.9 µM)
6 | CCCCCCCCCCCCCCCCC(=O)O[C@@H]1[C@H](OC)[C@@H]([C@@H](O[C@H]2OC(C(=O)N[C@H]3CCC[C@@H](C)NC3=O)=C[C@H](O)[C@@H]2O)C(N)=O)O[C@H]1n1ccc(=O)[nH]c1=O | > 100 |  | 8 (≈ 9.57 µM) | 4 (≈ 4.78 µM) | 2 (≈ 2.39 µM)
7 | CCCCCCCCCCCCCC(=O)O[C@@H]1[C@H](OC)[C@@H]([C@@H](O[C@H]2OC(C(=O)N[C@H]3CCCCNC3=O)=C[C@H](O)[C@@H]2O)C(N)=O)O[C@H]1n1ccc(=O)[nH]c1=O | 1.56 (≈ 2 µM) |  | 1 (≈ 1.28 µM) | 4 (≈ 5.13 µM) | 2 (≈ 2.56 µM)
8 | CCCCCCCCCCCCCCCCCC(=O)O[C@@H]1[C@H](OC)[C@@H]([C@@H](O[C@H]2OC(C(=O)N[C@H]3CCCCNC3=O)=C[C@H](O)[C@@H]2O)C(N)=O)O[C@H]1n1ccc(=O)[nH]c1=O | 50 (≈ 59.8 µM) |  |  |  | 
9 | CCCCCCCCCCCCCCCCOC(=O)O[C@@H]1[C@H](OC)[C@@H]([C@@H](O[C@H]2OC(C(=O)N[C@H]3CCC[C@@H](C)NC3=O)=C[C@H](O)[C@@H]2O)C(N)=O)O[C@H]1n1ccc(=O)[nH]c1=O | > 100 | > 2.93 | 2 (≈ 2.35 µM) | 8 (≈ 9.39 µM) | 0.5 (≈ 0.587 µM)
10 | CC/C=C\C/C=C\C/C=C\CCCCCCCC(=O)O[C@@H]1[C@H](OC)[C@@H]([C@@H](O[C@H]2OC(C(=O)N[C@H]3CCC[C@@H](C)NC3=O)=C[C@H](O)[C@@H]2O)C(N)=O)O[C@H]1n1ccc(=O)[nH]c1=O | 3.13 (≈ 3.71 µM) |  |  |  | 
11 | CCCCCCCCCCCCCCCCCCCC(=O)O[C@@H]1[C@H](OC)[C@@H]([C@@H](O[C@H]2OC(C(=O)N[C@H]3CCCCNC3=O)=C[C@H](O)[C@@H]2O)C(N)=O)O[C@H]1n1ccc(=O)[nH]c1=O | 50 (≈ 57.9 µM) |  |  |  | 
12 | CCCCCCCCCCCCCCCC(=O)O[C@@H]1[C@H](OC)[C@@H]([C@@H](O[C@H]2OC(C(=O)Nc3ccccc3)=C[C@H](O)[C@@H]2O)C(N)=O)O[C@H]1n1ccc(=O)[nH]c1=O | 12.5 (≈ 16.2 µM) | > 3.23 | 16 (≈ 20.7 µM) | 32 (≈ 41.4 µM) | 2 (≈ 2.59 µM)
13 | CO[C@H]1[C@@H](OC(=O)C(C)c2ccc([N+](=O)[O-])cc2)[C@H](n2ccc(=O)[nH]c2=O)O[C@@H]1[C@@H](O[C@H]1OC(C(=O)N[C@H]2CCC[C@@H](C)NC2=O)=C[C@H](O)[C@@H]1O)C(N)=O (stereo not given in full) | 25 (≈ 32.9 µM) |  |  |  | 
14 | CCCCCCCCCCCCCCCC(=O)O[C@@H]1[C@H](OC)[C@@H]([C@@H](O[C@H]2OC(C(=O)N[C@H]3CCCCNC3=O)=C[C@H](O)[C@@H]2O)C(N)=O)O[C@H]1n1ccc(=O)[nH]c1=O | 1.56 (≈ 1.93 µM) |  | 2 (≈ 2.48 µM) | 4 (≈ 4.95 µM) | 1 (≈ 1.24 µM)
15 | CCCCCCCCCCCC(=O)O[C@@H]1[C@H](OC)[C@@H]([C@@H](O[C@H]2OC(C(=O)N[C@H]3CCCCNC3=O)=C[C@H](O)[C@@H]2O)C(N)=O)O[C@H]1n1ccc(=O)[nH]c1=O | 3.13 (≈ 4.16 µM) |  | 0.125 (≈ 0.166 µM) | 0.125 (≈ 0.166 µM) | < 0.063
16 | CCCCC/C=C\C/C=C\CCCCCCCC(=O)O[C@@H]1[C@H](OC)[C@@H]([C@@H](O[C@H]2OC(C(=O)N[C@H]3CCC[C@@H](C)NC3=O)=C[C@H](O)[C@@H]2O)C(N)=O)O[C@H]1n1ccc(=O)[nH]c1=O | 6.25 (≈ 7.39 µM) |  |  |  | 
17 | CCCCCCCC/C=C\CCCCCCCCCCCC(=O)O[C@@H]1[C@H](OC)[C@@H]([C@@H](O[C@H]2OC(C(=O)N[C@H]3CCC[C@@H](C)NC3=O)=C[C@H](O)[C@@H]2O)C(N)=O)O[C@H]1n1ccc(=O)[nH]c1=O | > 100 |  |  |  | 
